The record followed here is patent US6833342B2, “Method of deodorizing and/or cleaning carpet using a composition comprising odor control agent” (The Procter & Gamble Company, priority 1999, dated 2004).

The nature of this data set: Interaction of perfume components with cyclodextrin (CD interaction). The data set is classed as physicochemical. Conditions: perfume component versus cyclodextrin. From the text:
Hydrophobic perfume ingredients have a tendency to complex with the cyclodextrins. The degree of hydrophobicity of a perfume ingredient can be correlated with its octanol/water partition coefficient P. The octanol/water partition coefficient of a perfume ingredient is the ratio between its equilibrium concentration in octanol and in water. A perfume ingredient with a greater partition coefficient P is considered to be more hydrophobic. Conversely, a perfume ingredient with a smaller partition coefficient P is considered to be more hydrophilic. […].
The following table illustrates the molecular weight property of some of the preferred perfume versus non-preferred perfume components.
Turning to `CC(C=O)Cc1ccc(C(C)C)cc1` (stereo not shown) [Cymal], the CD interaction result is listed as “strong”.
Take `CCOC(=O)c1ccccc1C(=O)OCC` [Diethyl Phthalate]: the CD interaction result is “weak”.
With `CC(=O)OC1CC2CC1C1CC=CC21` (stereo not shown) [Flor Acetate] the entry was “strong”.
With `CCC(=O)OC1CC2CC1C1CC=CC21` (stereo not shown) [Frutene], the CD interaction entry is given as “strong”.
The value for `CC1COCc2cc3c(cc21)C(C)(C)C(C)C3(C)C` (stereo not shown) [Galaxolide] was “weak”.
Consider `CCCCCCOC(=O)c1ccccc1O` [Hexyl Salicylate], for which the CD interaction result is reported as “weak”.
With `CCCCCCC(C=O)=Cc1ccccc1` [Hexyl cinnamic Aldehyde] the entry was “weak”; with `CC(=O)C1(C)CC2=C(CCCC2(C)C)CC1C` (stereo not shown) [Iso-E Super], “weak”.
On to `CCCCCCCCCCCCCC(=O)OC(C)C` [Iso-propyl Myristate], for which the CD interaction result was “weak”.
As for `CC(=O)C(C)=C(C)C(C)C(C)(C)C` (stereo not shown) [Koavone], the CD interaction entry is recorded as “strong”.
`CC(C=O)Cc1ccc(C(C)(C)C)cc1` (stereo not shown) [Lilial, p-t-bucinal]: the CD interaction result is on record as “strong”.
With `CC(C)(O)CCCC1=CCC(C=O)CC1` (stereo not shown) [Lyral] the entry was “weak”; with `CCCCCC1C(=O)CCC1CC(=O)OC` (stereo not shown) [Methyl Dihydro Jasmonate], “weak”; with `O=C(Cc1ccccc1)OCCc1ccccc1` [Phenyl-Ethyl-Phenyl Acetate], “weak”.
The value for `CC(=O)OC(C)(C)C1CC=C(C)CC1` (stereo not shown) [Terpinyl Acetate] was “significant”; that for `CCC(C)(O)CCCC(C)C` (stereo not shown) [Tetrahydrolinalol] was “significant”.
The value for `CC(=O)OC1CCC(C(C)(C)C)CC1` (stereo not shown) [Vertenex, para-tert-butylcyclohexyl acetate] was “strong”.
For the compound `CC(=O)/C=C/C1C(C)=CCCC1(C)C` (stereo not shown) [a-ionone], the CD interaction entry is “strong”.
For the compound a-Me Ionone, the CD interaction result is on record as “strong”.
